Data: ChEMBL document CHEMBL4507282, “Data for DCP probe BI-1950” (2021)

Columns and labels:
[1] = system: Phosphatidylinositol 4,5-bisphosphate 3-kinase catalytic subunit alpha isoform (Homo sapiens), P42336 [E545A]; details: Compound concentration 1000.0 nM
[2] = target: Bone morphogenetic protein receptor type-1A (Homo sapiens) (UniProt P36894); details: Compound concentration 1000.0 nM
[3] = target: Cyclin-dependent kinase-like 2 (Homo sapiens) (UniProt Q92772); details: Compound concentration 1000.0 nM
[4] = target: Aurora kinase C (Homo sapiens) (UniProt Q9UQB9); details: Compound concentration 1000.0 nM
Sequence of Aurora kinase C (Homo sapiens) (Q9UQB9 whole entry): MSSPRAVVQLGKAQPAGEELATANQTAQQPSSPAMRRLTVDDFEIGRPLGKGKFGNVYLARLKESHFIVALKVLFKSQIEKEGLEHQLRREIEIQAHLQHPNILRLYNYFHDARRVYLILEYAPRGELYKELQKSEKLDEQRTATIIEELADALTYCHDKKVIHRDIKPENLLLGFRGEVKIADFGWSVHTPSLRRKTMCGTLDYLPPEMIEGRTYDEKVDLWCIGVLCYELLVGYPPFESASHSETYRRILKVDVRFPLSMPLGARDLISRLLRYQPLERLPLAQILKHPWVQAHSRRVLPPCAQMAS

[5] = target: Non-receptor tyrosine-protein kinase TNK1 (Homo sapiens) (UniProt Q13470); details: Compound concentration 1000.0 nM
[6] = target: Alpha-1A adrenergic receptor (Homo sapiens) (UniProt P35348); details: Compound concentration 10.0 uM
[7] = target: Mitogen-activated protein kinase kinase kinase kinase 4 (Homo sapiens) (UniProt O95819); details: Compound concentration 1000.0 nM
[8] = target: Tyrosine-protein kinase receptor TYRO3 (Homo sapiens) (UniProt Q06418); details: Compound concentration 1000.0 nM
[9] = target: Dual specificity protein kinase CLK1 (Homo sapiens) (UniProt P49759); details: Compound concentration 1000.0 nM
Sequence of Dual specificity protein kinase CLK1 (Homo sapiens) (P49759 whole entry, looked up): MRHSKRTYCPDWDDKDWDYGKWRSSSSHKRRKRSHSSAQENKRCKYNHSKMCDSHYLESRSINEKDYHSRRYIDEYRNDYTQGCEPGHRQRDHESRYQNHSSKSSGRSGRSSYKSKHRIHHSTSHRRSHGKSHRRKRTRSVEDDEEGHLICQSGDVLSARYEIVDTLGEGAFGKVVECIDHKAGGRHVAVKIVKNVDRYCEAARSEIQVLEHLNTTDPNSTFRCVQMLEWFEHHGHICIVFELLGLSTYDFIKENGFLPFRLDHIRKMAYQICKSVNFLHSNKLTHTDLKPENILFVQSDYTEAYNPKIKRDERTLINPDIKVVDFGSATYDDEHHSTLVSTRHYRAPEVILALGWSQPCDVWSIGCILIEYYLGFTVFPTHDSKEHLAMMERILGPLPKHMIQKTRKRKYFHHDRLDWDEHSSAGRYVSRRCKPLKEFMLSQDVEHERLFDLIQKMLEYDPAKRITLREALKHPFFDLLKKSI

[10] = target: Serine/threonine-protein kinase Sgk2 (Homo sapiens) (UniProt Q9HBY8); details: Compound concentration 1000.0 nM
Sequence of Serine/threonine-protein kinase Sgk2 (Homo sapiens) (Q9HBY8 whole entry): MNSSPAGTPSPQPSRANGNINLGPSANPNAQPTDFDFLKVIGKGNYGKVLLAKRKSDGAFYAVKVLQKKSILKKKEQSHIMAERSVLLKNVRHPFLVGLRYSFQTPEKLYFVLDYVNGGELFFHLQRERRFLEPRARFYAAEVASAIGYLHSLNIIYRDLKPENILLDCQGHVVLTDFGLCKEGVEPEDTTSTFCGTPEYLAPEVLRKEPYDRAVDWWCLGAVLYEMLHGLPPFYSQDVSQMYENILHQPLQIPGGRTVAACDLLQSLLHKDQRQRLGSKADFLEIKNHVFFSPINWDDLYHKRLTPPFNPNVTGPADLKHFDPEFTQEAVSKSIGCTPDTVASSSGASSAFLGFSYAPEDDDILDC

[11] = target: Serine/threonine-protein kinase pim-1 (Homo sapiens) (UniProt P11309); details: Compound concentration 1000.0 nM
[12] = target: Aurora kinase B (Homo sapiens) (UniProt Q96GD4); details: Compound concentration 1000.0 nM
Sequence of Aurora kinase B (Homo sapiens) (Q96GD4 whole entry): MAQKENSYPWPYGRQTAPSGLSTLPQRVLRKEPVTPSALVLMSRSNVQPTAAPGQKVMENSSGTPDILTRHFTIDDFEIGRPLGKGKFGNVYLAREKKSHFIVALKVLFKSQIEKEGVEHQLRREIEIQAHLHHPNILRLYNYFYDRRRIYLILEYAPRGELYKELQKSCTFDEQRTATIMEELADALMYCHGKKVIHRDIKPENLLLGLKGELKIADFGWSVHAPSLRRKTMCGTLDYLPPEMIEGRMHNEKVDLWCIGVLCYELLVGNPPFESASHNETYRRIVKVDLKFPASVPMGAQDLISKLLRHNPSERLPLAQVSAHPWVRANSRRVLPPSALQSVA

[13] = target: Receptor tyrosine-protein kinase erbB-4 (Homo sapiens) (UniProt Q15303); details: Compound concentration 1000.0 nM
[14] = system: Tyrosine-protein kinase ABL1 (Homo sapiens), P00519 [Q252H]; details: Compound concentration 1000.0 nM
[15] = target: Ribosomal protein S6 kinase alpha-2 (Homo sapiens) (UniProt Q15349); details: Compound concentration 1000.0 nM
[16] = target: Casein kinase I isoform alpha-like (Homo sapiens) (UniProt Q8N752); details: Compound concentration 1000.0 nM
[17] = target: Dual specificity tyrosine-phosphorylation-regulated kinase 1A (Homo sapiens) (UniProt Q13627); details: Compound concentration 1000.0 nM
[18] = target: Serine/threonine-protein kinase N1 (Homo sapiens) (UniProt Q16512); details: Compound concentration 1000.0 nM
[19] = target: Tyrosine-protein kinase CSK (Homo sapiens) (UniProt P41240); details: Compound concentration 1000.0 nM
Sequence of Tyrosine-protein kinase CSK (Homo sapiens) (P41240 2-450 limits assumed): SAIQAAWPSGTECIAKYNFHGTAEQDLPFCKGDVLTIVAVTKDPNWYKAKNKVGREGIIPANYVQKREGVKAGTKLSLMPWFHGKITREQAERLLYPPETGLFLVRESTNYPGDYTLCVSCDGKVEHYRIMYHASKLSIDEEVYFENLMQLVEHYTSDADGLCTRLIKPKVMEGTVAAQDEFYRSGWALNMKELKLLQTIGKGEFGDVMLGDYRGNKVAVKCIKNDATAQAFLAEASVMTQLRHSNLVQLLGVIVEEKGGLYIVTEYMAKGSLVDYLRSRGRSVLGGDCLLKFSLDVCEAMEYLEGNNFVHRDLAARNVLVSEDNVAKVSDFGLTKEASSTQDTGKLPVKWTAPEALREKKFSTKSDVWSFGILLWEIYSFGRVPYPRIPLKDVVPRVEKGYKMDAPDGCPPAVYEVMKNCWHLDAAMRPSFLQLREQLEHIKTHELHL

[20] = target: Casein kinase II subunit alpha' (Homo sapiens) (UniProt P19784); details: Compound concentration 1000.0 nM
[21] = system: Phosphatidylinositol 4,5-bisphosphate 3-kinase catalytic subunit alpha isoform (Homo sapiens), P42336 [C420R]; details: Compound concentration 1000.0 nM
Sequence of Phosphatidylinositol 4,5-bisphosphate 3-kinase catalytic subunit alpha isoform (Homo sapiens), P42336 [C420R] (P42336 whole entry C420R, canonical isoform): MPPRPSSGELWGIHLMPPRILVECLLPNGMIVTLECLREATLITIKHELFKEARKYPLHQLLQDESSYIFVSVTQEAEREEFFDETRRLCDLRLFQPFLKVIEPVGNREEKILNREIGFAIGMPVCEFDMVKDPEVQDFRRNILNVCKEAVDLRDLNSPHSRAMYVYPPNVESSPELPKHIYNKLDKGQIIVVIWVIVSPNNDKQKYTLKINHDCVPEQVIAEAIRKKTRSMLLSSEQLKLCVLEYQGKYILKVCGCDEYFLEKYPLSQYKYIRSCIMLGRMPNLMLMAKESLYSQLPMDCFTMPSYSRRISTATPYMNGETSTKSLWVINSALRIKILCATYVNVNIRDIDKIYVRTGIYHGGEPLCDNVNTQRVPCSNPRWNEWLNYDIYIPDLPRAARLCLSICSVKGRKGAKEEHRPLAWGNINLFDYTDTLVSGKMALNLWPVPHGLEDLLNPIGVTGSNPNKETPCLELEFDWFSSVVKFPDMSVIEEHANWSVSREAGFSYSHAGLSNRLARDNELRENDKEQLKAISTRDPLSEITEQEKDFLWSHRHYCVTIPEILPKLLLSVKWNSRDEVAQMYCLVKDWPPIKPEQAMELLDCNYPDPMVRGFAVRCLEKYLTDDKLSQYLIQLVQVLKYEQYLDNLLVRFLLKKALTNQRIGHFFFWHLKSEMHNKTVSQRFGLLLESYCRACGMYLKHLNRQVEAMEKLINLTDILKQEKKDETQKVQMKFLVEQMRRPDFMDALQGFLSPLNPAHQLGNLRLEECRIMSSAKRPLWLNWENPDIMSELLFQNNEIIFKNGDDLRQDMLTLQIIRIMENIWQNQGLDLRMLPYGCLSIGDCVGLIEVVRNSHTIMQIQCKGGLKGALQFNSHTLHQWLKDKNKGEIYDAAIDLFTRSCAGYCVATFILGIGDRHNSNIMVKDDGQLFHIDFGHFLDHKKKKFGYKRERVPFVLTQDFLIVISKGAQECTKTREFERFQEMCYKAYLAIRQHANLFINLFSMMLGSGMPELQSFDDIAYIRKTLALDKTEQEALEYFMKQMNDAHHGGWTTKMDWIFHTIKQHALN

[22] = target: Receptor tyrosine-protein kinase erbB-3 (Homo sapiens) (UniProt P21860); details: Compound concentration 1000.0 nM
[23] = target: Interferon-induced, double-stranded RNA-activated protein kinase (Homo sapiens) (UniProt P19525); details: Compound concentration 1000.0 nM
Sequence of Interferon-induced, double-stranded RNA-activated protein kinase (Homo sapiens) (P19525 whole entry): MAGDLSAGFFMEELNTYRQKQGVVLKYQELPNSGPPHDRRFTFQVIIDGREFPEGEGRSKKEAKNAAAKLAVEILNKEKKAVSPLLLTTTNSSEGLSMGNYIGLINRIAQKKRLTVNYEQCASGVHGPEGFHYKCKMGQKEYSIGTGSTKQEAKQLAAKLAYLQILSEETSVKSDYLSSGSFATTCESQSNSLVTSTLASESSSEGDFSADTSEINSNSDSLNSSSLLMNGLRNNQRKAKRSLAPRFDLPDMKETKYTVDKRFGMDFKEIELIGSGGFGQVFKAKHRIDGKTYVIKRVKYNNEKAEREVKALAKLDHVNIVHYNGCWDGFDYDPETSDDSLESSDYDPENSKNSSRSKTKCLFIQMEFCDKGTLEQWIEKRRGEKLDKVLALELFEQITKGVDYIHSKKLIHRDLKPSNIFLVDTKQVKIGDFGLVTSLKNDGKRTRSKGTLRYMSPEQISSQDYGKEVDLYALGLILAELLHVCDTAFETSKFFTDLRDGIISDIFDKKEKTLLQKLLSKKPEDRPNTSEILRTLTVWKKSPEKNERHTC

[24] = target: Interleukin-1 receptor-associated kinase 4 (Homo sapiens) (UniProt Q9NWZ3); details: Compound concentration 1000.0 nM
[25] = system: Phosphatidylinositol 4,5-bisphosphate 3-kinase catalytic subunit alpha isoform (Homo sapiens), P42336 [H1047Y]; details: Compound concentration 1000.0 nM
[26] = target: Calcium/calmodulin-dependent protein kinase type 1D (Homo sapiens) (UniProt Q8IU85); details: Compound concentration 1000.0 nM
[27] = target: Serine/threonine-protein kinase 10 (Homo sapiens) (UniProt O94804); details: Compound concentration 1000.0 nM
[28] = system: eIF-2-alpha kinase GCN2 (Homo sapiens), Q9P2K8 [S808G]; details: Compound concentration 1000.0 nM
[29] = target: Serine/threonine-protein kinase 16 (Homo sapiens) (UniProt O75716); details: Compound concentration 1000.0 nM
[30] = target: Activin receptor type-1B (Homo sapiens) (UniProt P36896); details: Compound concentration 1000.0 nM
[31] = target: Tyrosine-protein kinase HCK (Homo sapiens) (UniProt P08631); details: Compound concentration 1000.0 nM
[32] = target: Mitogen-activated protein kinase kinase kinase 15 (Homo sapiens) (UniProt Q6ZN16); details: Compound concentration 1000.0 nM
[33] = target: Cyclin-dependent kinase 4 (Homo sapiens) (UniProt P11802); details: Compound concentration 1000.0 nM
Sequence of Cyclin-dependent kinase 4 (Homo sapiens) (P11802 whole entry): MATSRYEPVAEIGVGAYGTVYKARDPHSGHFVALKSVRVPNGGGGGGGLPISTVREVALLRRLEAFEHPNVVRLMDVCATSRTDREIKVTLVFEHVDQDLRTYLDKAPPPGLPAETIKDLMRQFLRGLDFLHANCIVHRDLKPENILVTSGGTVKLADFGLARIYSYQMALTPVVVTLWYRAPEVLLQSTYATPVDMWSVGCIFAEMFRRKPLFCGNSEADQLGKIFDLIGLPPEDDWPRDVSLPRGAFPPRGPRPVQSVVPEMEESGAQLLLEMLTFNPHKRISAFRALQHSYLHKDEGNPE

[34] = target: Mitogen-activated protein kinase 7 (Homo sapiens) (UniProt Q13164); details: Compound concentration 1000.0 nM
[35] = system: Serine/threonine-protein kinase B-raf (Homo sapiens), P15056 [V600E]; details: Compound concentration 1000.0 nM
[36] = target: Focal adhesion kinase 1 (Homo sapiens) (UniProt Q05397); details: Compound concentration 1000.0 nM
[37] = target: Tyrosine-protein kinase Fer (Homo sapiens) (UniProt P16591); details: Compound concentration 1000.0 nM
[38] = target: Mitogen-activated protein kinase kinase kinase kinase 1 (Homo sapiens) (UniProt Q92918); details: Compound concentration 1000.0 nM
[39] = target: Phosphatidylinositol 4,5-bisphosphate 3-kinase catalytic subunit beta isoform (Homo sapiens) (UniProt P42338); details: Compound concentration 1000.0 nM
Sequence of Phosphatidylinositol 4,5-bisphosphate 3-kinase catalytic subunit beta isoform (Homo sapiens) (P42338 whole entry, looked up, canonical isoform): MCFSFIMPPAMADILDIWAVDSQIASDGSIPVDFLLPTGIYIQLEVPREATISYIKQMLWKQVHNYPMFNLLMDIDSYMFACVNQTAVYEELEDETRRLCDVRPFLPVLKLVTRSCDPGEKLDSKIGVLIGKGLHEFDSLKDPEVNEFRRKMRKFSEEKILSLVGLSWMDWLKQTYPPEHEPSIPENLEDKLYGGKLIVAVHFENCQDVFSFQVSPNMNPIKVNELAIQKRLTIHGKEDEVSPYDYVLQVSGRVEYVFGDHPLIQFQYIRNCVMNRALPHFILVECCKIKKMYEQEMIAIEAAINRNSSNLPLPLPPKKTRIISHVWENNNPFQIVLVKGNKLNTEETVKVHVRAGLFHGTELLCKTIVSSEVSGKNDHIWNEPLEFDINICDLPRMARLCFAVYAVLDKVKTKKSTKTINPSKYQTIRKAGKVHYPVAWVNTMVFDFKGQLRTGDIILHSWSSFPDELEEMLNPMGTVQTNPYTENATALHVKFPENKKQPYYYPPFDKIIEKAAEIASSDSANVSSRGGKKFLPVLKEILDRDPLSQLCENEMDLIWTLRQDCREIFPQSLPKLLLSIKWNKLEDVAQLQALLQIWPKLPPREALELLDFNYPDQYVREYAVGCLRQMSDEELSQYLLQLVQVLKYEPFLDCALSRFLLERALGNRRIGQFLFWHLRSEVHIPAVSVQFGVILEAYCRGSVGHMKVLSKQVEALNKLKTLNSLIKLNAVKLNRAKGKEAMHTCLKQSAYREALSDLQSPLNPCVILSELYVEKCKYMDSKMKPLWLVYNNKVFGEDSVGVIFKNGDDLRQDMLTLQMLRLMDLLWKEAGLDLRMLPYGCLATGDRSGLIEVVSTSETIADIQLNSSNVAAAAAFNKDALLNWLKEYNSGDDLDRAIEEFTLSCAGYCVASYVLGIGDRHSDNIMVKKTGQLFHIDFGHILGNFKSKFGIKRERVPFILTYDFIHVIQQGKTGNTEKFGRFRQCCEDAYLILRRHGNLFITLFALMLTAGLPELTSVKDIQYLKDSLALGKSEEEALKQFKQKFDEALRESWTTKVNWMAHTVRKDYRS

[40] = target: Casein kinase I isoform gamma-1 (Homo sapiens) (UniProt Q9HCP0); details: Compound concentration 1000.0 nM
[41] = target: D(3) dopamine receptor (Homo sapiens) (UniProt P35462); details: Compound concentration 10.0 uM
[42] = system: Epidermal growth factor receptor (Homo sapiens), P00533 [UNDEFINED MUTATION]; details: Compound concentration 1000.0 nM
[43] = target: Inhibitor of nuclear factor kappa-B kinase subunit epsilon (Homo sapiens) (UniProt Q14164); details: Compound concentration 1000.0 nM
[44] = target: Vascular endothelial growth factor receptor 3 (Homo sapiens) (UniProt P35916); details: Compound concentration 1000.0 nM
[45] = system: Receptor-type tyrosine-protein kinase FLT3 (Homo sapiens), P36888 [N841I]; details: Compound concentration 1000.0 nM

C[C@H](NC(=O)c1cnc2n1[C@](C)(Cc1ccc(C#N)cc1)C(=O)N2c1cc(Cl)c(F)c(Cl)c1)C(=O)NC1(c2ccccn2)CC1 [BI 1950]
residual activity [1]: 100%
residual activity [2]: 98%
residual activity [3]: 100%
residual activity [4]: 100%
residual activity [5]: 88%
inhibition [6]: -8.89%
residual activity [7]: 100%
residual activity [8]: 100%
residual activity [9]: 86%
residual activity [10]: 94%
residual activity [11]: 100%
residual activity [12]: 100%
residual activity [13]: 100%
residual activity [14]: 90%
residual activity [15]: 100%
residual activity [16]: 100%
residual activity [17]: 100%
residual activity [18]: 100%
residual activity [19]: 100%
residual activity [20]: 99%
residual activity [21]: 93%
residual activity [22]: 100%
residual activity [23]: 34%
residual activity [24]: 100%
residual activity [25]: 100%
residual activity [26]: 99%
residual activity [27]: 100%
residual activity [28]: 100%
residual activity [29]: 100%
residual activity [30]: 99%
residual activity [31]: 100%
residual activity [32]: 76%
residual activity [33]: 100%
residual activity [34]: 100%
residual activity [35]: 100%
residual activity [36]: 100%
residual activity [37]: 100%
residual activity [38]: 100%
residual activity [39]: 99%
residual activity [40]: 99%
inhibition [41]: -3.54%
residual activity [42]: 100%
residual activity [43]: 89%
residual activity [44]: 100%
residual activity [45]: 78%

C[C@@]1(Cc2ccc(C#N)cc2)C(=O)N(c2cc(Cl)cc(Cl)c2)c2ncc(C(=O)NC3(c4nc(C5CCC5)no4)CC3)n21 [BI 9446]
residual activity [1]: 100%
residual activity [2]: 100%
residual activity [3]: 100%
residual activity [4]: 100%
residual activity [5]: 93%
inhibition [6]: -1.65%
residual activity [7]: 91%
residual activity [8]: 100%
residual activity [9]: 100%
residual activity [10]: 100%
residual activity [11]: 100%
residual activity [12]: 100%
residual activity [13]: 100%
residual activity [14]: 89%
residual activity [15]: 100%
residual activity [16]: 89%
residual activity [17]: 99%
residual activity [18]: 100%
residual activity [19]: 98%
residual activity [20]: 100%
residual activity [21]: 89%
residual activity [22]: 96%
residual activity [23]: 56%
residual activity [24]: 100%
residual activity [25]: 100%
residual activity [26]: 100%
residual activity [27]: 100%
residual activity [28]: 100%
residual activity [29]: 100%
residual activity [30]: 100%
residual activity [31]: 100%
residual activity [32]: 81%
residual activity [33]: 100%
residual activity [34]: 100%
residual activity [35]: 100%
residual activity [36]: 100%
residual activity [37]: 100%
residual activity [38]: 100%
residual activity [39]: 97%
residual activity [40]: 92%
inhibition [41]: 9.55%
residual activity [42]: 97%
residual activity [43]: 80%
residual activity [44]: 100%
residual activity [45]: 89%
